One test addresses DGK α kinase (Homo sapiens, UniProt P23743). Put plainly: In vitro DGK inhibition assay (ADP Glo) run by Reaction Biology Corp., DGK alpha. It is filed as biochemical. Conditions: isomer A, 2 nM kinase, 50 μM ATP, 500 uM DLG, 10-dose, 3-fold dilution starting at 1 μM, read-out: DGKalpha IC50. As to the method:
(§1) DGK α and ζ kinase use ATP to phosphorylate the substrate 1,2-dilauroyl-sn-glycerol (DLG). ATP is converted to ADP as a result of this enzymatic reaction.
(§2) After the kinase reaction, an ATP-depletion reagent is added to terminate the kinase reaction and deplete any remaining ATP, leaving only ADP. Second, a detection reagent is added to simultaneously convert ADP to ATP and allow the newly synthesized ATP to be converted to light using a coupled luciferase/luciferin reaction.
(§3) DGK α and ζ kinase ADP Glo assays were ran by Reaction Biology Corp., 1 Great Valley Parkway, Suite 2, Malverm, 19355, PA, USA. Information provided by the service provider are the following: DGK α and ζ kinases were used at 2 nM final concentration. Reactions were carried out at 50 μM ATP. 500 uM of the substrate DLG (Dilauroyl-sn-glycerol) was used. Compounds were received at 10 mM DMSO stock solution and were tested in 10-dose IC50 duplicate with 3-fold serial dilution starting at 1 μM. A control compound, Calphostin C, was tested in 10-dose IC50 with 3-fold serial dilution starting at 100 μM.

Another test concerns primary human T-cells. Kind of test: T-cell proliferation assay (CellTiter-Glo). It is filed as cell-based. Conditions: isomer A; for EC50: CD3 antibody-stimulated T-cells, CellTiter-Glo after 5 days, read-out: Tcell Proliferation CD3 EC50. The gist of the method:
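Expanded primary human T-cells (100k/well) on CD3-antibody-coated or PBS-only plates, 5–6-point doses from 20 or 10 μM top, 0.2% DMSO; proliferation by CellTiter-Glo ATP luminescence after 5 days. Normalized to DMSO (0%) and 20 μM reference compound (100%); EC50 and Emax from sigmoidal fit for CD3 conditions.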

Another test has as its target DGK ζ kinase (Homo sapiens, UniProt Q13574). Put plainly: In vitro DGK inhibition assay (ADP Glo) run by Reaction Biology Corp., DGK zeta. It is filed as biochemical. Conditions: isomer A, 2 nM kinase, 50 μM ATP, 500 uM DLG, 10-dose, 3-fold dilution starting at 1 μM, read-out: DGKzeta IC50. The procedure:
as §1, §2, §3

Like-named read-outs stand apart in the source and are kept apart here.

Chain of DGK ζ kinase (Q13574 whole entry): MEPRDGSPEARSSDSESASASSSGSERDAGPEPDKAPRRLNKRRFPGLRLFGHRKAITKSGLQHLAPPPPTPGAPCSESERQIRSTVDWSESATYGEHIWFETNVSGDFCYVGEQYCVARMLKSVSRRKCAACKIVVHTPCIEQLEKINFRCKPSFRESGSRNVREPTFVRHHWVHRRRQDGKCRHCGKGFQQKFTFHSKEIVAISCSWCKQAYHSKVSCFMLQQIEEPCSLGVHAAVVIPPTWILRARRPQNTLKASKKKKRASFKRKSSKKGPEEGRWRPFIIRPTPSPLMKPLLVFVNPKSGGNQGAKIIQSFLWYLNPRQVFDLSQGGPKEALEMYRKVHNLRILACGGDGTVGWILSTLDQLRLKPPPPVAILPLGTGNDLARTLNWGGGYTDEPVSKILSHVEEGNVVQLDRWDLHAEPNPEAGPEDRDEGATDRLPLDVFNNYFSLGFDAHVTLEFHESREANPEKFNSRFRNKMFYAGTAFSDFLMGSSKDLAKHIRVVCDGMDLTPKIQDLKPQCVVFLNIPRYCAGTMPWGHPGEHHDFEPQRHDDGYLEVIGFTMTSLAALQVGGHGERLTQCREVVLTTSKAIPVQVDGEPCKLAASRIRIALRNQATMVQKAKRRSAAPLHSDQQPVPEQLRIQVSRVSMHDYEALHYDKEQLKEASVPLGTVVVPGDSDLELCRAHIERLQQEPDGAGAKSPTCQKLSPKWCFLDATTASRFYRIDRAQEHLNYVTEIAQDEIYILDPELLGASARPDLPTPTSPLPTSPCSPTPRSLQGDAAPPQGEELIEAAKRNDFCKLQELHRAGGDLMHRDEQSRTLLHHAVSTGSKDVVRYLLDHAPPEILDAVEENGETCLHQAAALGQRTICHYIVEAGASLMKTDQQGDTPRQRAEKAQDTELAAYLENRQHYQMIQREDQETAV
Chain of DGK α kinase (P23743 whole entry): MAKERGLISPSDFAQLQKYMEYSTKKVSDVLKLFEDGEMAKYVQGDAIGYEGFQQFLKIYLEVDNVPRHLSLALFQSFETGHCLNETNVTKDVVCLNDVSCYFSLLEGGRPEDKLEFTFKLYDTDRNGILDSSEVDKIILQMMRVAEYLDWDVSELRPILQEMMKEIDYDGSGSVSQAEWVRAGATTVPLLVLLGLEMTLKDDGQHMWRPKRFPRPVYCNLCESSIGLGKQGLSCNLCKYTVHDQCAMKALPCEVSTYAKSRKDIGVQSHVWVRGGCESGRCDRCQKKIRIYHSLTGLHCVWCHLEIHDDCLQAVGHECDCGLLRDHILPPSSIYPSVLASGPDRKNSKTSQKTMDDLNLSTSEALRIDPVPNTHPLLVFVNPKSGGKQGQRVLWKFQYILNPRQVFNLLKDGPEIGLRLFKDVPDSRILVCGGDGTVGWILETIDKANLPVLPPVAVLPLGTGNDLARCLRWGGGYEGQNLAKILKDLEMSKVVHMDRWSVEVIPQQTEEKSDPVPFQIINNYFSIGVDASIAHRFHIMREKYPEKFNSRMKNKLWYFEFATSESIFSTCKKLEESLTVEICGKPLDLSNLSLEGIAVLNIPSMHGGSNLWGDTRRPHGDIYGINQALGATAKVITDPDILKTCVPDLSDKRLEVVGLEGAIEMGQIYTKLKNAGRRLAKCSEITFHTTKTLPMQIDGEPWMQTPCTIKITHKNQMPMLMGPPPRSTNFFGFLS

As to “2-methyl-2-[5-[(3S)-3-amino-5,5,7-trifluoro-2-oxo-1-[[4-(trifluoromethoxy)phenyl]methyl]-3,4-dihydro-1-benzazepin-8-yl]-1,3,4-oxadiazol-2-yl]propanenitrile and 2-methyl-2-[5-[(3R)-3-amino-5,5,7-trifluoro-2-oxo-1-[[4-(trifluoromethoxy)phenyl]methyl]-3,4-dihydro-1-benzazepin-8-yl]-1,3,4-oxadiazol-2-yl]propanenitrile [Example 2]”, the IC50 came to 10.5 nM on DGK α kinase and 22.1 nM on DGK ζ kinase. Further, the EC50 in the test with primary human T-cells turned out to be 315 nM. The “Emax proliferation (% activation)” value in the test with primary human T-cells (CD3 condition, 5 days, 20 μM reference compound A1 = 100%, DMSO neutral control) is reported as 161 % activation.
As to `CC(C)(c1nnc(-c2cc3c(cc2F)C(F)(F)CC(N)C(=O)N3Cc2ccc(Oc3ccccc3)cc2)o1)S(C)(=O)=O` (racemic) [Example 5, (3S)-3-amino-5,5,7-trifluoro-8-[5-(1-methyl-1-methylsulfonyl-ethyl)-1,3,4-oxadiazol-2-yl]-1-[(4-phenoxyphenyl)methyl]-3,4-dihydro-1-benzazepin-2-one and (3R)-3-amino-5,5,7-trifluoro-8-[5-(1-methyl-1-methylsulfonyl-ethyl)-1,3,4-oxadiazol-2-yl]-1-[(4-phenoxyphenyl)methyl]-3,4-dihydro-1-benzazepin-2-one], the IC50 was found to be 124 nM on DGK α kinase and 57.9 nM on DGK ζ kinase. Besides, in the test with primary human T-cells (Homo sapiens, T-cell, 120 h), the EC50 is 684 nM. The Emax in the test with primary human T-cells (Homo sapiens, T-cell, 120 h, CD3 condition, 5 days, 20 μM reference compound A1 = 100%, DMSO neutral control, read-out: Emax proliferation (% activation)) was 249%.

The values are drawn from patent US20250236614A1, “BICYCLIC TETRAHYDROAZEPINE DERIVATIVES” (Hoffmann-La Roche Inc., priority 2022, published 2025).
